# Data as given in patent US10138255B2, “Piperazine derivatives as HIV protease inhibitors” (Merck Sharp & Dohme Corp., priority 2014, dated 2018).
# System: HIV-1 (H9IIIB strain)
# Assay: Cell-Based HIV Infection Assay Using a Reporter (MT4-GFP cells)
# Settings: Human immunodeficiency virus 1, inflection point (IP) of viral growth inhibition; MT4-GFP cells infected with HIV-1 H9IIIB; 50% normal human serum; mean of at least two independent experiments; read-out: Cell Based IP (50% NHS)
# In short: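 MT4-GFP cells (HIV LTR-driven GFP) bulk-infected with HIV-1 H9IIIB at low MOI for 24 h, washed, then exposed to compounds in RPMI plus 50% normal human serum, 0.4% DMSO. Infected cells counted at 24 and 48 h; R0 = 48 h/24 h ratio, inhibition normalised to DMSO and triple-drug control; IP from 4-parameter fit.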
row,Compound,EC50
1,"C[C@@H]1CC([C@H](c2ccc(Cl)cc2)[C@H](N)C(=O)N[C@H]2CCCC[C@@H]2CC[C@H]2CN[C@@H]3CCCS(=O)(=O)N2C3)C[C@H](C)O1 (stereo partly drawn) [Example 162, (βR)-4-chloro-β-[(2R,6S)-2,6-dimethyltetrahydro-2H-pyran-4-yl]-N-[(1S,2R)-2-{2-[(6R,9S)-2,2-dioxido-2-thia-1,7-diazabicyclo[4.3.1]dec-9-yl]ethyl}cyclohexyl]-L-phenylalaninamide]",37 nM
2,"CCC(CC)[C@H](c1ccc(Cl)cc1)[C@H](N)C(=O)Nc1cncc(F)c1CC[C@H]1CN[C@@H]2CCCS(=O)(=O)N1C2 [Example 242, (2S,3R)-2-amino-3-(4-chlorophenyl)-N-(4-(2-((6R,9S)-2,2-dioxido-2-thia-1,7-diazabicyclo[4.3.1]decan-9-yl)ethyl)-5-fluoropyridin-3-yl)-4-ethylhexanamide]",17 nM
3,"COC(=O)N[C@H](C(=O)Nc1cccc(F)c1CC[C@H]1CN[C@@H]2CCCS(=O)(=O)N1C2)[C@@H](c1ccc(F)cc1)[C@H]1C[C@@H](OC)C1 [Example 105, methyl [(1S)-2-[(2-{2-[(6R,9S)-2,2-dioxido-2-thia-1,7-diazabicyclo[4.3.1]dec-9-yl]ethyl}-3-fluorophenyl)amino]-1-{(R)-(4-fluorophenyl)[(1s,3S)-3-methoxycyclobutyl]methyl}-2-oxoethyl]carbamate]",33 nM
4,"Cn1nc([C@H](c2ccc(Cl)cc2)[C@H](N)C(=O)Nc2cccc(F)c2CC[C@H]2CN[C@@H]3CCCS(=O)(=O)N2C3)cc1C(F)(F)F [Example 260, (βR)-4-chloro-N-(2-{2-[(6R,9S)-2,2-dioxido-2-thia-1,7-diazabicyclo[4.3.1]dec-9-yl]ethyl}-3-fluorophenyl)-β-[1-methyl-5-(trifluoromethyl)-1H-pyrazol-3-yl]-L-phenylalaninamide]",4.4 nM
5,"COC[C@H]1CC[C@H]([C@H](c2ccc(Cl)cc2)[C@H](N)C(=O)Nc2cncc(F)c2CC[C@H]2CN[C@@H]3CCCS(=O)(=O)N2C3)CC1 [Example 254, (βR)-4-chloro-N-(4-{2-[(6R,9S)-2,2-dioxido-2-thia-1,7-diazabicyclo[4.3.1]dec-9-yl]ethyl}-5-fluoropyridin-3-yl)-β-[(1r,4R)-4-(methoxymethyl)cyclohexyl]-L-phenylalaninamide]",3 nM
6,"N[C@H](C(=O)Nc1cncc(F)c1CC[C@H]1CN[C@@H]2CCCS(=O)(=O)N1C2)C1(c2ccc(Cl)cc2)CCOCC1 [Example 233, (2S)-2-amino-2-[4-(4-chlorophenyl)tetrahydro-2H-pyran-4-yl]-N-(4-{2-[(6R,9S)-2,2-dioxido-2-thia-1,7-diazabicyclo[4.3.1]dec-9-yl]ethyl}-5-fluoropyridin-3-yl)ethanamide]",67 nM
7,"C[C@@H]1CC([C@H](c2ccc(Cl)c(F)c2)[C@H](N)C(=O)Nc2cccc(F)c2CC[C@H]2CN[C@@H]3CCCS(=O)(=O)N2C3)C[C@H](C)O1 (stereo partly drawn) [Example 165, (βR)-4-chloro-β-[(2R,6S)-2,6-dimethyltetrahydro-2H-pyran-4-yl]-N-(2-{2-[(6R,9S)-2,2-dioxido-2-thia-1,7-diazabicyclo[4.3.1]dec-9-yl]ethyl}-3-fluorophenyl)-3-fluoro-L-phenylalaninamide]",7.5 nM
8,"COC(=O)N[C@H](C(=O)Nc1cccc(F)c1CC[C@H]1CN[C@@H]2CCCCS(=O)(=O)N1C2)[C@@H](c1ccc(F)cc1)c1cc(F)cc(F)c1 [Example 277, Methyl ((1S,2S)-1-(3,5-difluorophenyl)-3-((2-(2-((7R,10S)-2,2-dioxido-2-thia-1,8-diazabicyclo[5.3.1]undecan-10-yl)ethyl)-3-fluorophenyl)amino)-1-(4-fluorophenyl)-3-oxopropan-2-yl)carbamate]",10 nM
9,"COC(=O)N[C@H](C(=O)Nc1cccc(F)c1CCC1CNC2CCCS(=O)(=O)N1C2)[C@@H](c1ccc(F)cc1)c1ccc(C(F)(F)F)cc1 (stereo partly drawn) [Example 224, Methyl [(1S)-2-({2-[2-(2,2-dioxido-2-thia-1,7-diazabicyclo[4.3.1]dec-9-yl)ethyl]-3-fluorophenyl}amino)-1-{(R)-(4-fluorophenyl)[4-(trifluoromethyl)phenyl]methyl}-2-oxoethyl]carbamate]",5.7 nM
10,"CC(C)Oc1cnc([C@H](c2ccc(Cl)cc2)[C@H](N)C(=O)Nc2cccc(F)c2CC[C@H]2CN[C@@H]3CCCS(=O)(=O)N2C3)cn1 [Example 259, (βR)-4-chloro-N-(2-{2-[(6R,9S)-2,2-dioxido-2-thia-1,7-diazabicyclo[4.3.1]dec-9-yl]ethyl}-3-fluorophenyl)-β-[5-(1-methylethoxy)pyrazin-2-yl]-L-phenylalaninamide]",4.2 nM
11,"C[C@@H]1CC([C@H](c2ccc(F)cc2)[C@H](N)C(=O)N[C@H]2CCC[C@@H]2CC[C@H]2CN[C@@H]3CCCS(=O)(=O)N2C3)C[C@H](C)O1 (stereo partly drawn) [Example 107, (βR)-β-[(2R,4s,6S)-2,6-dimethyltetrahydro-2H-pyran-4-yl]-N-[(1S,2R)-2-{2-[(6R,9S)-2,2-dioxido-2-thia-1,7-diazabicyclo[4.3.1]dec-9-yl]ethyl}cyclopentyl]-4-fluoro-L-phenylalaninamide]",84 nM
12,"COC(=O)N[C@H](C(=O)Nc1cccc(F)c1CCC1CNC2CCCS(=O)(=O)N1C2)[C@@H](c1ccc(F)cc1)c1ccc(C2CC2)cc1 (stereo partly drawn) [Example 60, methyl [(1S,2R)-2-(4-cyclopropylphenyl)-1-({2-[2-(2,2-dioxido-2-thia-1,7-diazabicyclo[4.3.1]dec-9-yl)ethyl]-3-fluorophenyl}carbamoyl)-2-(4-fluorophenyl)ethyl]carbamate]",9.9 nM
13,"CC(C)Oc1cnc([C@H](c2ccc(Cl)cc2)[C@H](N)C(=O)Nc2cncc(F)c2CC[C@H]2CN[C@@H]3CCCS(=O)(=O)N2C3)cn1 [Example 263, (βR)-4-chloro-N-(4-{2-[(6R,9S)-2,2-dioxido-2-thia-1,7-diazabicyclo[4.3.1]dec-9-yl]ethyl}-5-fluoropyridin-3-yl)-β-[5-(1-methylethoxy)pyrazin-2-yl]-L-phenylalaninamide]",5.2 nM
14,"CC(C)Oc1cc([C@H](c2ccc(Cl)cc2)[C@H](N)C(=O)Nc2cccc(F)c2CCC2CNC3CCCS(=O)(=O)N2C3)ccn1 (stereo partly drawn) [Example 17, (βS)-4-Chloro-N-{2-[2-(2,2-dioxido-2-thia-1,7-diazabicyclo[4.3.1]dec-9-yl)ethyl]-3-fluorophenyl}-β-[2-(1-methylethoxy)pyridin-4-yl]-L-phenylalaninamide]",8.9 nM
15,"CCC(CC)[C@H](c1ccc(Cl)cc1)[C@H](NC(=O)OC)C(=O)Nc1cccc(F)c1CCC1CNC2CCCS(=O)(=O)N1C2 (stereo partly drawn) [Example 71, methyl [(1S,2R)-2-(4-chlorophenyl)-1-({2-[2-(2,2-dioxido-2-thia-1,7-diazabicyclo[4.3.1]dec-9-yl)ethyl]-3-fluorophenyl}carbamoyl)-3-ethylpentyl]carbamate]",41 nM
16,"COC(=O)N[C@H](C(=O)Nc1cccc(F)c1CCC1CNC2CCCS(=O)(=O)N1C2)[C@H](c1cncc(F)c1)c1ccc(Cl)c(F)c1 (stereo partly drawn) [Example 46, methyl [(1S,2S)-2-(4-chloro-3-fluorophenyl)-1-({2-[2-(2,2-dioxido-2-thia-1,7-diazabicyclo[4.3.1]dec-9-yl)ethyl]-3-fluorophenyl}carbamoyl)-2-(5-fluoropyridin-3-yl)ethyl]carbamate]",9.1 nM
17,"COC(=O)N[C@H](C(=O)N[C@H]1CCC[C@@H]1CC[C@H]1CN[C@@H]2CCCS(=O)(=O)N1C2)[C@@H](c1ccc(F)cc1)C1CCOC(C)(C)C1 (stereo partly drawn) [Example 50, methyl [(1S,2R)-2-(2,2-dimethyltetrahydro-2H-pyran-4-yl)-1-{[(1S,2R)-2-{2-[(6R,9S)-2,2-dioxido-2-thia-1,7-diazabicyclo[4.3.1]dec-9-yl]ethyl}cyclopentyl]carbamoyl}-2-(4-fluorophenyl)ethyl]carbamate]",28 nM
18,"N[C@H](C(=O)N[C@H]1CCCC[C@@H]1CC[C@H]1CN[C@@H]2CCCS(=O)(=O)N1C2)[C@@H](c1ccc(Cl)cc1)c1cc(F)cc(F)c1 [Example 160, (βS)-β-(4-chlorophenyl)-N-[(1S,2R)-2-{2-[(6R,9S)-2,2-dioxido-2-thia-1,7-diazabicyclo[4.3.1]dec-9-yl]ethyl}cyclohexyl]-3,5-difluoro-L-phenylalaninamide]",22 nM
19,"N[C@H](C(=O)Nc1cccc(F)c1CCC1CNC2CCCS(=O)(=O)N1C2)[C@@H](c1ccc(F)cc1)c1ccc(C2CC2)cc1 (stereo partly drawn) [Example 59, (βR)-4-cyclopropyl-N-{2-[2-(2,2-dioxido-2-thia-1,7-diazabicyclo[4.3.1]dec-9-yl)ethyl]-3-fluorophenyl}-β-(4-fluorophenyl)-L-phenylalaninamide]",16 nM
20,"COC(=O)N[C@H](C(=O)N[C@H]1CCC[C@@H]1CC[C@H]1CN[C@@H]2CCCS(=O)(=O)N1C2)C(c1ccc(F)cc1)c1ccc(F)cc1 [Example 49, methyl [(1S)-1-[bis(4-fluorophenyl)methyl]-2-{[(1S,2R)-2-{2-[(6R,9S)-2,2-dioxido-2-thia-1,7-diazabicyclo[4.3.1]dec-9-yl]ethyl}cyclopentyl]amino}-2-oxoethyl]carbamate]",18 nM
21,"COC(=O)N[C@H](C(=O)Nc1cccc(F)c1CC[C@H]1CN[C@@H]2CCCS(=O)(=O)N1C2)[C@@]1(c2ccc(Cl)cc2)C[C@@H](C)O[C@@H](C)C1 [Example 167, methyl {(1S)-1-[(2R,4r,6S)-4-(4-chlorophenyl)-2,6-dimethyltetrahydro-2H-pyran-4-yl]-2-[(2-{2-[(6R,9S)-2,2-dioxido-2-thia-1,7-diazabicyclo[4.3.1]dec-9-yl]ethyl}-3-fluorophenyl)amino]-2-oxoethyl}carbamate]",27 nM
22,"N[C@H](C(=O)Nc1cccc(F)c1CCC1CNC2CCCS(=O)(=O)N1C2)[C@H](c1cncc(C(F)(F)F)c1)c1ccc(Cl)c(F)c1 (stereo partly drawn) [Example 227, (βS)-4-Chloro-N-{2-[2-(2,2-dioxido-2-thia-1,7-diazabicyclo[4.3.1]dec-9-yl)ethyl]-3-fluorophenyl}-3-fluoro-β-[5-(trifluoromethyl)pyridin-3-yl]-L-phenylalaninamide]",7.1 nM
